Values after ≈ are worked out from the molar mass of the structure shown. Where two headings read alike, the source gives them in different places.
Key:
CYP3A4 = CYP3A4 (Homo sapiens, UniProt P08684); assay: CYP inhibition, CYP3A4; type: in vitro ADME; conditions: human liver microsomes
Method: (§1) The study was conducted by WuXi AppTec, Co., China, using the time-dependent (TDI) method. […] Following incubation with substrates (phenacetin for 1A2, diclofenac for 2C9, S-(+) mephenytoin for 2C19, dextromethorphan for 2D6, and midazolam or testosterone for 3A4), reactions were stopped by adding ice-cold acetonitrile, the samples were analyzed for the formation of metabolites by LC-MS/MS, and the percentage of inhibition was determined.

[1] = Liver microsome stability, dog; type: in vitro ADME; conditions: Beagle, dog liver microsomes, pH 7.4
Method: Tests were performed by WuXi AppTec, China. Test compounds (at 1 μM) or positive controls (testosterone, propafenone, and diclofenac) were incubated at 37 °C with liver microsomes from Balb/c mouse, golden (Syrian) hamster, Sprague-Dawley rat, Beagle dog, or human in the presence of a NADPH regenerating system and phosphate buffer (100 mM, pH 7.4) at 0.4 or 0.8 mg/mL microsomal protein. The samples were removed at time intervals from 0 to 60, 90, or 120 min and immediately mixed with cold methanol supplemented or not with acid (3% formic acid) and centrifuged prior to analysis by LC-MS/MS using tolbutamide or propranolol as internal standards.

[2] = tested on: wild-type T. brucei trypanosomes; assay: Drug sensitivity, wild-type T. brucei; type: cell-based; conditions: Trypanosoma brucei
Method: (§2) The clonal L. donovani cell line LdBOB (derived from MHOM/SD/62/1S-CL2D) was grown as promastigotes at 28 °C, as described previously. Bloodstream form T. brucei MiTat 1.2 clone 221a and its derived subline, 2T1, were cultured at 37 °C in the presence of 5% CO2 in HMI9-T medium, as described previously. T. brucei cell lines overexpressing CPSF3 and overexpressing a mutated version of CPSF3 (Asn232His) were generated as part of a previous study and cultured as described.[19]
(§3) Drug sensitivity assays with wild-type and transgenic T. brucei and L. donovani cell lines were carried out as previously described.[31],[32]

[3] = tested on: CPSF3 (Asn219His)-overexpressing L. donovani promastigotes; assay: Drug sensitivity, CPSF3 (Asn219His)-overexpressing L. donovani promastigotes; type: cell-based; conditions: Leishmania donovani
Method: as §2
L. donovaniCPSF3 gene (LdBPK_343210.1) was custom synthesized by GeneArt and ligated into the pIR1SAT vector via BglII restriction sites. Using the Q5 mutagenesis kit (NEB) and the pIR1SAT-LdCPSF3^WT construct as a template, mutations encoding A655C and Asn219His change to CPSF3^WT were introduced. Mutations were introduced using the specific primers 5′-GAGTACACGGCATCCGC-3′ and 5′-[…]-3′ and as per manufacturers’ instructions. Wild-type and mutated pIR1SAT constructs were digested with SwaI and transfected into L. donovani promastigotes, as previously described. Resistant clones were selected with nourseothricin (100 μg/mL), and two clones per transfection were selected for further study.
as §3

CYP2C19 = CYP2C19 (Homo sapiens, UniProt P33261); assay: CYP inhibition, CYP2C19; type: in vitro ADME; conditions: human liver microsomes
CYP2C19, sequence (P33261 whole entry): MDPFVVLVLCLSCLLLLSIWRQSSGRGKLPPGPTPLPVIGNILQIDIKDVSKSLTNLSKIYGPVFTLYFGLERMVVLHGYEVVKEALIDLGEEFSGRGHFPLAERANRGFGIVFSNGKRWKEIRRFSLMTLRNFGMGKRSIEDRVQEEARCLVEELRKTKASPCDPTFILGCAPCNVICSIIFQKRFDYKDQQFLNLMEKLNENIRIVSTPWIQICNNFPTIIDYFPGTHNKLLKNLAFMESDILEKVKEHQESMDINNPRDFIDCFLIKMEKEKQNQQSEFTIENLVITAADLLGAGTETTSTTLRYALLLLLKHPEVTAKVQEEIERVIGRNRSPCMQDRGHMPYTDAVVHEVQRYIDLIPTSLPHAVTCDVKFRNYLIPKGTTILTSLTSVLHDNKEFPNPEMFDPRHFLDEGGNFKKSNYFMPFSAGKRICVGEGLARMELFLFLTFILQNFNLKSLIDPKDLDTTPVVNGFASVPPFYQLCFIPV
Method: as §1

[4] = Plasma-protein binding, hamster; type: in vitro ADME; conditions: golden (Syrian), pH 7.4
Method: (§4) Tests were conducted by WuXi AppTec, Co., China, using the equilibrium dialysis method and a 96-well plate format. The test compound (at 2 μM, in triplicate) in solution in plasma (Balb/c mouse, golden (Syrian) hamster, Sprague-Dawley rat, Beagle dog or human) was dialyzed against 100 mM phosphate-buffered saline (pH 7.4) on a rotating plate incubated for 6 h at 37 °C. Following the precipitation of protein with acetonitrile or acetonitrile/methanol containing both 1% phosphoric acid, the amount of compound present in each compartment was quantified by LC-MS/MS.

CYP1A2 = CYP1A2 (Homo sapiens, UniProt P05177); assay: CYP inhibition, CYP1A2; type: in vitro ADME; conditions: human liver microsomes
CYP1A2, sequence (P05177 whole entry): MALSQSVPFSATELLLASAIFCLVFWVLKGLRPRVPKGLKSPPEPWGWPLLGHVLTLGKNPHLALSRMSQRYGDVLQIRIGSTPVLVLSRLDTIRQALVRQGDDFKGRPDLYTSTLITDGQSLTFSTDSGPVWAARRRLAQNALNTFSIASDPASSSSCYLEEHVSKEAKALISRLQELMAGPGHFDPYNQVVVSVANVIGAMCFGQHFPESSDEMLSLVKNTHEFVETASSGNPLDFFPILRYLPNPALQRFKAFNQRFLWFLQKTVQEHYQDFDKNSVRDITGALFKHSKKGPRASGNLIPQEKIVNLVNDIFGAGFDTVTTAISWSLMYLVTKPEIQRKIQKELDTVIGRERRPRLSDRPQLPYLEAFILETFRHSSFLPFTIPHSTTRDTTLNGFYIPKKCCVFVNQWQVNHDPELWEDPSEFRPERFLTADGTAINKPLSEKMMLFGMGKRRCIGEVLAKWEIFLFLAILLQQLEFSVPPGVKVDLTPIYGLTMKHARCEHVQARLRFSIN
Method: as §1

[5] = In vivo pharmacokinetics in dog; set-up: species or system male Beagle dogs; conditions: for MRT inf: read-out: MRT0-inf; for MRT last: read-out: MRT0-last
Method: DNDI-6148 was administrated intravenously at 1 mg/kg and orally at 5 mg/kg to male Beagle dogs. The formulation for the i.v. leg was 2% ethanol, 1.0 mol equiv NaOH, dextrose (5% solution) filtered, and adjusted to pH 7, and for the p.o. leg, the formulation was 2% ethanol, 1.0 mol equiv NaOH, and dextrose (5% solution). The K2-EDTA anticoagulant was added to blood samples collected at predose, 0.033 (i.v. only), 0.083 (p.o. only), 0.25, 0.5, 1, 3, 6, 9, and 24 h, and were stabilized with phosphoric acid (1% final) before analysis by LC-MS/MS. PK parameters were calculated using WinNonlin software (version 6.3).

Thermodynamic solubility = type: physicochemical
Method: The thermodynamic solubility was measured by WuXi AppTec, China. Aliquots of the compound DMSO stock (10 mM) were transferred to fasted state simulated intestinal fluid (FaSSIF) buffer (pH 6.5) or fed state simulated intestinal fluid (FeSSIF) buffer (pH 5.0), and the mixtures were shaken for 24 h at room temperature. Following sampling by a Whatman filter device, the compound concentrations were determined by UV spectroscopy.

[6] = Plasma-protein binding, dog; type: in vitro ADME; conditions: Beagle, pH 7.4
Method: as §4

[7] = male, Beagle, plasma, IV 1.0 mg/kg, mean
[8] = male, Beagle, plasma, PO 5 mg/kg, mean
[9] = male, Beagle, plasma, iv, i.v. 1 mg/kg

CYP3A4, sequence (P08684 2-503 limits assumed): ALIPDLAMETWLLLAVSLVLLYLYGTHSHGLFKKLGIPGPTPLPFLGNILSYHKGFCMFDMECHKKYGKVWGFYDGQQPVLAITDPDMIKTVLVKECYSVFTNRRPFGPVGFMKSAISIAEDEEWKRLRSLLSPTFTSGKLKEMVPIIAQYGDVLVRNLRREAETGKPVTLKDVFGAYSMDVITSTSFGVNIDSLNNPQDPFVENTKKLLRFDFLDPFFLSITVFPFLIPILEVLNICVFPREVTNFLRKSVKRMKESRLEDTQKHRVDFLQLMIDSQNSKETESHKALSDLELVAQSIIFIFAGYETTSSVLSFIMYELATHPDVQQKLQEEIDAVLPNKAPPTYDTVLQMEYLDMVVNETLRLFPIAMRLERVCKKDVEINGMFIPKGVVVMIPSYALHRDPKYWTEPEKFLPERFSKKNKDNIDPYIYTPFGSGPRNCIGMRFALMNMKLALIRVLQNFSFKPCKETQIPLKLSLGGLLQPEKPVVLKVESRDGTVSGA

SMILES: Cc1c(C(=O)Nc2ccc3c(c2)B(O)OC3)nnn1-c1ccccn1 [Compound 23, N-(1-Hydroxy-1,3-dihydrobenzo[c][1,2]oxaborol-6-yl)-5-methyl-1-(pyridin-2-yl)-1H-1,2,3-triazole-4-carboxamide]
- IC50 (CYP3A4): > 50 µM
- microsomal CLint at 1 μM [1]: 5.8 µL/min/mg
- EC50 ([2]; Figure 2A): 0.047 ± 0.0009 µM
- EC50 ([2]; Figure 2B): 0.067 ± 0.001 µM
- EC50 [3]: 1.67 ± 0.051 µM
- IC50 (CYP2C19): > 50 µM
- fraction unbound at 6 h, 2 µM [4]: 0.12
- IC50 (CYP1A2): > 50 µM
- AUC0-inf/AUC0-last ([5]; IV 1.0 mg/kg, mean): 102%
- Tlast ([5]; IV 1.0 mg/kg, mean): 9.00 h
- AUC0-inf/AUC0-last ([5]; PO 5 mg/kg, mean): 103%
- Tlast ([5]; PO 5 mg/kg, mean): 9.00 h
- concentration at 0.033 h ([5]; male, Beagle, plasma, IV 1.0 mg/kg, 0.033 h, mean): 1560 ng/mL
- concentration at 5 min [5, 7]: 1120 ng/mL
- concentration at 0.25 h [5, 7]: 644 ng/mL
- concentration at 0.5 h [5, 7]: 534 ng/mL
- concentration at 1 h [5, 7]: 373 ng/mL
- concentration at 3 h [5, 7]: 97.7 ng/mL
- concentration at 6 h [5, 7]: 23 ng/mL
- concentration at 9 h [5, 7]: 8.8 ng/mL
- concentration at 24 h [5, 7]: 0.9 ng/mL
- AUC(0-inf) [5, 7]: 1270 ng·h/mL
- AUC(0-t) [5, 7]: 1240 ng·h/mL
- C0 [5, 7]: 1930 ng/mL
- half-life [5, 7]: 1.49 h
- MRT inf [5, 7]: 1.66 h
- MRT last [5, 7]: 1.51 h
- Vd ([5]; male, Beagle, plasma, IV 1.0 mg/kg, mean, read-out: Vdss): 1.31 L/kg
- concentration at 5 min [5, 8]: 266 ng/mL
- concentration at 0.25 h [5, 8]: 1130 ng/mL
- concentration at 0.5 h [5, 8]: 881 ng/mL
- concentration at 1 h [5, 8]: 814 ng/mL
- concentration at 3 h [5, 8]: 357 ng/mL
- concentration at 6 h [5, 8]: 54.8 ng/mL
- concentration at 9 h [5, 8]: 25.5 ng/mL
- concentration at 24 h [5, 8]: 0.9 ng/mL
- AUC(0-inf) [5, 8]: 2530 ng·h/mL
- AUC(0-t) [5, 8]: 2470 ng·h/mL
- Cmax [5, 8]: 1220 ng/mL
- Tmax [5, 8]: 0.63 h
- half-life [5, 8]: 1.46 h
- MRT inf [5, 8]: 2.42 h
- MRT last [5, 8]: 2.19 h
- Vd at 24 h [5, 9]: 1.3 L/kg
- clearance [5, 9]: 13.7 mL/min/kg
- half-life at 24 h [5, 9]: 1.5 h
- bioavailability at 24 h ([5]; male, Beagle, plasma, po, p.o. 5 mg/kg): 39%
- solubility at 24 h (Thermodynamic solubility; FaSSIF buffer pH 6.5, read-out: FaSSIF solubility): 5.4 µg/mL (≈ 16.1 µM)
- solubility at 24 h (Thermodynamic solubility; FeSSIF buffer pH 5.0, read-out: FeSSIF solubility): 6.3 µg/mL (≈ 18.8 µM)
- fraction unbound at 6 h, 2 µM [6]: 0.13

From paper PMC8591608, “DNDI-6148: A Novel Benzoxaborole Preclinical Candidate for the Treatment of Visceral Leishmaniasis” (Journal of Medicinal Chemistry, 2021)
